Experimental data: PubChem BioAssay (NCI)
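48-hour exposure; five concentrations; linearly interpolated endpoints. At the GI50, growth is halved. TGI: concentration producing complete growth inhibition.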

Experiments:
Experiment in all cases: NCI anticancer screen, dose series, 48 h
[1] = system: ACHN renal
[2] = system: SN12C renal
[3] = system: OVCAR-4 ovarian
[4] = system: SW-620 colon
[5] = system: DU-145 prostate
[6] = system: SF-295 CNS
[7] = system: RPMI-8226 leukemia
[8] = system: OVCAR-3 ovarian
[9] = system: NCI-H460 lung
[10] = system: HS 578T breast
[11] = system: CAKI-1 renal
[12] = system: T-47D breast
[13] = system: A549 NSCLC
[14] = system: SK-OV-3 ovarian
[15] = system: SNB-19 CNS
[16] = system: UO-31 renal
[17] = system: OVCAR-5 ovarian
[18] = system: MDA-MB-231 breast
[19] = system: MDA-N
[20] = system: BT-549 breast
[21] = system: TK-10 renal
[22] = system: MOLT-4 leukemia
[23] = system: EKVX NSCLC
[24] = system: SF-268 CNS
[25] = system: KM12 colon
[26] = system: HCT-116 colon
[27] = system: NCI-H522 lung
[28] = system: COLO 205 colon
[29] = system: A498 renal
[30] = system: HCC-2998 colon
[31] = system: NCI-H226 lung
[32] = system: K-562 leukemia
[33] = system: PC-3 prostate
[34] = system: RXF 393 renal
[35] = system: MALME-3M melanoma
[36] = system: NCI-H23 lung
[37] = system: MDA-MB-435
[38] = system: SK-MEL-2 melanoma
[39] = system: SF-539 CNS
[40] = system: M14 melanoma
[41] = system: HOP-62 NSCLC
[42] = system: HCT-15 colon
[43] = system: SNB-75 CNS
[44] = system: 786-0 renal
[45] = system: HT29 colon
[46] = system: SK-MEL-28 melanoma
[47] = system: SR leukemia
[48] = system: U251 CNS
[49] = system: NCI/ADR-RES ovarian
[50] = system: SK-MEL-5 melanoma
[51] = system: HOP-92 NSCLC
[52] = system: OVCAR-8 ovarian
[53] = system: MCF7 breast
[54] = system: UACC-257 melanoma
[55] = system: LOX IMVI melanoma
[56] = system: IGROV1 ovarian
[57] = system: UACC-62 melanoma

C[n+]1c2cc(N)ccc2cc2ccc(N)cc21 (tested in a mixture with another compound)
GI50 [1]: 304 nM | TGI [1]: 3590 nM | GI50 [2]: 326 nM | TGI [2]: 1750 nM | GI50 [3]: 646 nM | TGI [3]: 2680 nM | GI50 [4]: 79.1 nM | TGI [4]: 6200 nM | GI50 [5]: 584 nM | TGI [5]: 4880 nM | GI50 [6]: 809 nM | TGI [6]: 4620 nM | GI50 [7]: 345 nM | TGI [7]: 1680 nM | GI50 [8]: 1160 nM | TGI [8]: 8380 nM | GI50 [9]: 269 nM | GI50 [10]: 687 nM | TGI [10]: 3560 nM | GI50 [11]: 429 nM | TGI [11]: 3540 nM | GI50 [12]: 330 nM | TGI [12]: 3020 nM | GI50 [13]: 74.9 nM | TGI [13]: 10100 nM | GI50 [14]: 1350 nM | TGI [14]: 6150 nM | GI50 [15]: 578 nM | TGI [15]: 3940 nM | GI50 [16]: 106 nM | TGI [16]: 598 nM | GI50 [17]: 405 nM | TGI [17]: 11100 nM | GI50 [18]: 618 nM | TGI [18]: 2500 nM | GI50 [19]: 640 nM | TGI [19]: 2060 nM | GI50 [20]: 624 nM | TGI [20]: 5250 nM | GI50 [21]: 1040 nM | TGI [21]: 7490 nM | GI50 [22]: 209 nM | TGI [22]: 746 nM | GI50 [23]: 261 nM | TGI [23]: 1770 nM | GI50 [24]: 265 nM | TGI [24]: 1290 nM | GI50 [25]: 210 nM | TGI [25]: 1370 nM | GI50 [26]: 345 nM | GI50 [27]: 217 nM | TGI [27]: 839 nM | GI50 [28]: 148 nM | TGI [28]: 1300 nM | GI50 [29]: 133 nM | TGI [29]: 515 nM | GI50 [30]: 221 nM | TGI [30]: 1440 nM | GI50 [31]: 291 nM | TGI [31]: 1790 nM | GI50 [32]: 200 nM | TGI [32]: 1250 nM | GI50 [33]: 332 nM | TGI [33]: 12900 nM | GI50 [34]: 1120 nM | TGI [34]: 3410 nM | GI50 [35]: 258 nM | TGI [35]: 1040 nM | GI50 [36]: 292 nM | TGI [36]: 1430 nM | GI50 [37]: 615 nM | TGI [37]: 2100 nM | GI50 [38]: 1620 nM | TGI [38]: 15300 nM | GI50 [39]: 498 nM | TGI [39]: 6220 nM | GI50 [40]: 1040 nM | TGI [40]: 5210 nM | GI50 [41]: 630 nM | TGI [41]: 5370 nM | GI50 [42]: 512 nM | TGI [42]: 4710 nM | GI50 [43]: 314 nM | TGI [43]: 1380 nM | GI50 [44]: 320 nM | TGI [44]: 2290 nM | GI50 [45]: 431 nM | TGI [45]: 3870 nM | GI50 [46]: 1330 nM | TGI [46]: 7480 nM | GI50 [47]: 169 nM | TGI [47]: 537 nM | GI50 [48]: 448 nM | TGI [48]: 3650 nM | GI50 [49]: 746 nM | TGI [49]: 4840 nM | GI50 [50]: 616 nM | TGI [50]: 2250 nM | GI50 [51]: 273 nM | TGI [51]: 1090 nM | GI50 [52]: 377 nM | TGI [52]: 2230 nM | GI50 [53]: 372 nM | TGI [53]: 17900 nM | GI50 [54]: 337 nM | TGI [54]: 2040 nM | GI50 [55]: 307 nM | TGI [55]: 1460 nM | GI50 [56]: 140 nM | TGI [56]: 1480 nM | GI50 [57]: 435 nM | TGI [57]: 1940 nM
